Key:
apo-MCR-1-S = apo-MCR-1-S (Escherichia coli, UniProt A0A0R6L508); assay: biochemical
Procedure: The apo-MCR-1-S without any tag was diluted into proper concentration for ITC assay. […] The stoichiometry of metal binding and binding affinities were obtained by fitting the data with proper equations and these assays were performed in triplicate.

MCR-1-S = MCR-1-S (Escherichia coli, UniProt A0A0R6L508); conditions: ICP-MS
Procedure: The equilibrium dialysis was used to monitor the exact binding process. Apo-MCR-1-S was put in the inner side of dialysis membrane and outer side was supplemented with Au^+, Ag^+ or Zn^2+ at different molar ratios. Zn^2+ displacement analysis was performed by adding equivalents of Au^+ and Ag^+ into outer side of the membrane.

full length MCR-1 = target: T1, full length MCR-1 (Escherichia coli, UniProt A0A0R6L508); format: biochemical; conditions: MCR-1 pre-treated with 10 molar equivalents, 25° C. overnight
T1 construct: The full length MCR-1 was pre-treated with or without 10 molar equivalents
T1 sequence (A0A0R6L508 whole entry): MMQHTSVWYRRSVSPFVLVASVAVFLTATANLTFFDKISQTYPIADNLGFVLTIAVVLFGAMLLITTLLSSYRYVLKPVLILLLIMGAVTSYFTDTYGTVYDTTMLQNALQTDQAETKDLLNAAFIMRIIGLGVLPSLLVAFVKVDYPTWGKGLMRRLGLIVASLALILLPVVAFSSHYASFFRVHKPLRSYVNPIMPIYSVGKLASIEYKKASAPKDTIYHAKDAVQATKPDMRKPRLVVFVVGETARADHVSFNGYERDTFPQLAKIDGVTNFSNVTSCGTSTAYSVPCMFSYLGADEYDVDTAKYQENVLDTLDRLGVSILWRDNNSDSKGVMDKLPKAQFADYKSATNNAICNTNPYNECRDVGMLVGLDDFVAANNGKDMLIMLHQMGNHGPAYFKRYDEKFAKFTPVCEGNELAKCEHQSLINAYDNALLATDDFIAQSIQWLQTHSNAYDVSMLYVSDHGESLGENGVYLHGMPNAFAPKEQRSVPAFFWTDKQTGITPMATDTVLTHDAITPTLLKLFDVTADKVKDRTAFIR
Procedure: TLC plate was used to separate NBD-glycerol from the MCR-1 reaction mixture in a mobile phase [ethyl acetate:methanol:water, 7:2:1 (vol/vol)]. The reaction product was analyzed by exposing the TLC plate to UV light (455-485 nm) and visualizing the fluorescent signals with a gel imaging system. […] Cellular Thermal Shift Assay

MCR-1-negative E. coli = format: cell-based; conditions: MCR-1-negative E. coli strain
Procedure: (§1) MIC values of either antibiotics or Bi(III) compounds were determined firstly by standard broth micro-dilution method (Clinical and Laboratory Standards Institute (CLSI) M100-S20, 2010). Briefly, bacteria cells were cultured in LB broth overnight at 37° C. at 250 rpm and the optical density was measured at 600 nm (OD600) using a microtiter plate reader. The bacterial density was adjusted to about 1×10^6 CFU mL^−1 and checked by CFU counting on agar plates afterwards. Tested compounds were added triplicately into individual wells of flat-bottomed 96-well plates and performed two-fold serial dilution, followed by addition of prepared bacterial inoculum. The plate was then incubated at 37° C. overnight. Lanes with no antibiotics or bismuth compounds served as positive controls and lanes with no bacteria added served as negative controls. The MIC was determined as the lowest concentration of compounds that could inhibit the growth of microorganism by both visual reading and OD600 measurement.
(§2) Other procedures and the check of MIC were kept strictly the same. […] Synergism was defined as FICI≤0.5, indifference was defined as FICI>0.5 and <4, and antagonism was defined as FICI≥4. All of the determinations were performed at least in triplicate on different days.

MCR-1-producing E. coli = assay: Mutant prevention concentration (MPC) test; format: cell-based; conditions: for mutant colonies: colistin alone at 16×MIC, or colistin with 30 μg mL^−1 of the compound; for MPI of colistin (MPC/MIC): in presence of 30 μg mL^−1 of the compound
Source text: Given the very notion of MIC, all susceptible bacterial cells are suppressed or killed by a dose above it. […] The dose of compounds at MIC adversely amplifies the population of those less-susceptible mutants. Thus, mutant prevention concentration (MPC), defined as a compound concentration that suppresses the growth of first-step resistant mutant in large quantity of susceptible bacterial population, together with mutant prevention index (MPI=MPC/MIC), is introduced to estimate the mutant prevention ability of exemplary compound combination. […] All the plates were incubated at 37° C. Upon incubation for 48 hours, up to 4 colonies were picked and re-cultured from any plates with observable colonies, followed by the measurement of their MIC values. […] The concentration that restricted the growth of mutant colonies was determined as MPC.

[1] = test system: K. pneumoniae 9607 (MCR-1+); assay: Murine infection model, bacterial loads in liver and spleen; format: in vivo, mice; conditions: monotherapy, single i.p. dose 1 hr post-infection, 48 hrs; colistin 2 mg kg^−1, auranofin 0.5 mg kg^−1, AgNO3 1.5 mg kg^−1
Procedure: For local infection experiment, an overnight culture of K. pneumoniae 9607 (MCR-1^+) was performed 1:250 dilution in LB broth and re-grew to about OD600 0.5 at 37° C., 250 rpm. Bacterial pellets were collected and washed by PBS buffer three times for further use. Mice were infected intraperitoneally (i.p.) with a dose of 2×10^6 CFU of bacteria in PBS. […] All the mice were scarified at 48 hrs following systemic infection, and bacterial loads in livers and spleens were examined by agar plating. […] Body weights and mice survival were monitored till endpoint of the experiment.

E. coli CKE = assay: Murine systemic infection model, survival assay; format: in vivo, mice; conditions: for mice rescued from death: combination with colistin 1 mg kg^−1, single i.p. dose 0.5 hr post infection; for protection of mice from death: mono-therapy, AgNO3 0.75 mg kg^−1 or auranofin 0.25 mg kg^−1 i.p., within 72 hours
Zn(II)-MCR-1-S = Zn(II)-MCR-1-S (Escherichia coli, UniProt A0A0R6L508); conditions: PAR assay
Sequence of Zn(II)-MCR-1-S (A0A0R6L508 200-541): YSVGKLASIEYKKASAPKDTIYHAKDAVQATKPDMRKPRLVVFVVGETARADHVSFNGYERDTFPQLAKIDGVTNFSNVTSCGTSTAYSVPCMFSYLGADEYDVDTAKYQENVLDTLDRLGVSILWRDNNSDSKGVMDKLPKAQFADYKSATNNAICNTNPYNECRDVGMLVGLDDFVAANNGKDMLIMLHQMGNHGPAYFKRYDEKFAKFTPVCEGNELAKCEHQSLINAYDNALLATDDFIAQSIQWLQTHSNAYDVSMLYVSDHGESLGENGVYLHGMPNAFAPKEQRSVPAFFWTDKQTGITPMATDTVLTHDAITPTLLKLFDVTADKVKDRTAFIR
Procedure: UV-visible spectra were collected by Varian Cary 50 spectrophotometer at a rate of 360 nm/min by using the 1 cm^−1 quartz cuvette. 4-(2-pyridylazo) resorcinol (PAR), a Zn(II) chelator, can strongly chelate free Zn^2+ to form Zn(PAR)2 complex, leading to an obvious migration of maximum absorbance peak from ca. 420 nm to ca. 500 nm. Herein, we incubated apo-MCR-1-S with 10 folds Zn^2+ in dialysis buffer (20 mM HEPES, pH=7.4, 50 mM NH4NO3). After 12 hour incubation, Zn(II)-MCR-1-S was separated into aliquots and then mixed with Ag(I), Au(I) or even their compounds at different molecular ratios. Dialysis buffer instead of these metal compounds was added into Zn(II)-MCR-1-S solution as negative controls. For positive control, 10-folds of Zn(II) were mixed with apo-MCR-1-S. By comparing the peak intensities among different groups, the amounts of released Zn(II) could be calculated. UV-visible spectra were recorded in a range of 220-600 nm at least 30 min later after incubation.

MCR-1 = target: T2, MCR-1 (Escherichia coli, UniProt A0A0R6L508); format: cell-based, E. coli BL21(DE3); conditions: overnight exposure, in cellulo
T2 construct: solvable truncated MCR-1 fragment (200-541 aa) but without any tag; expressed in transfected cells; host or cells: E. coli BL21(DE3)
T2 sequence (A0A0R6L508 200-541): as above
Procedure: Considering that MCR-1 is a transmembrane protein, we constructed a plasmid with solvable truncated MCR-1 fragment (200-541 aa) but without any tag and then transferred it into E. coli BL21(DE3). The cellular thermal shift assay was performed according to a general standard method. […] The bacterial pellets were harvested and washed with PBS for 3 times. The cell suspensions were aliquoted into PCR tubes and heat treatment was performed at the designated temperature for 3 mins in a 96-well thermal cycler. The tubes were cooled immediately at 25° C., and the heat treatments were repeated for three cycles. For the cell lysis, the samples were frozen-thawed in liquid nitrogen and thermal cycler was set at 25° C. The samples were vortexed gently after each cycle and centrifuged at 20,000×g to obtain the supernatant. All the samples were subjected to SDS-PAGE gel and electrotransferred to a PVDF membrane (Hybond-P, GE Healthcare). A PageRuler Prestained Protein Ladder #26616 (Thermo) was used as a standard marker.

S. flexneri (MCR-1+) = format: cell-based; conditions: MCR-1 positive S. flexneri; AgNO3 10 μM, auranofin 3 μM, Au(PEt3)Cl 3 μM; untreated 4.1, MCR-1 negative 6.1
Procedure: Membrane potential assay was carried out based on a modified method according to manufacturer's instructions. […] The bacterial pellets were then resuspended in PBS supplemented with DiOC2 (30 μM) and stained at 37° C. for 30 mins. Stained bacteria were then assayed in a flow cytometer and the signals from FITC-A (488 nm, green gate) and PI-A (633 nm, red gate) were collected and then analyzed. S. flexneri without treatment served as the control.

MCR-producing E. coli [2] = format: cell-based
Procedure: as §1, §2

MCR-producing E. coli [3] = assay: In vitro serial passage resistance assay; format: cell-based; conditions: colistin combined with the compound
Procedure: The in vitro passage assay was also conducted to evaluate the antimicrobial durability of the combination. In a typical experiment, an overnight culture of MCR-producing E. coli was diluted to 10^7 CFU mL^−1 in LB broth. […] All the plates were incubated at 37° C. and the growth of cultures was checked at 24 h intervals. Cultures from the second highest concentrations that allowed growth were performed 1:1000 dilution into fresh medium supplemented with the same concentrations of drugs. For colistin, 1-fold of MIC was set as 4 μg mL^−1. This in vitro passage was repeated for 20 days. MIC of MER was determined every four passages.

Sequence of apo-MCR-1-S (A0A0R6L508 200-541): as above
Sequence of MCR-1-S (A0A0R6L508 200-541): as above

Row | SMILES | Kd (apo-MCR-1-S) [nM] | replacement of protein bound metal by extraneous Zn(II) (MCR-1-S) | equivalents of metal that replaced about 3 molar equivalents of Zn(II) (MCR-1-S; equilibrium dialysis) [equivalent] | migration of NBD-glycerol (cleavage activity of MCR-1) (full length MCR-1) | inhibition in combination with colistin (MCR-1-negative E. coli) | mutant colonies (MCR-1-producing E. coli) | MPI of colistin (MPC/MIC) (MCR-1-producing E. coli) | CFUs in liver and spleen [1] | mice rescued from death (E. coli CKE) | protection of mice from death (E. coli CKE) | release of Zn(II) from MCR-1-S upon titration (Zn(II)-MCR-1-S) | decrease of cellular thermal stability of MCR-1, ΔTm (MCR-1) [°C] | green/red fluorescent ratio after treatment (S. flexneri (MCR-1+)) | MIC of colistin in combination with the compound (MCR-producing E. coli [2]; checkerboard, lowest colistin MIC reached with increasing compound) [µg/mL] | FIC index (FICI) with colistin (MCR-producing E. coli [2]; synergism FICI≤0.5) | fold rise of colistin MIC after 16 serial passages (MCR-producing E. coli [3]) [folds]
1 | [Ag+] [AgNO3, silver nitrate] | ~200 | could not be replaced | 16 | none of AgNO3, AuCl or Au(PEt3)Cl treatment group exhibited observable migration | no inhibition was observed | no mutant colony was observable | 0.5 | ~10^5 cfu mL^−1 g^−1 | 3 out of 6 | failed to protect any of the mice from death | completely released | – | – | – | – | –
2 | [Zn+2] [Zn(Ac)2, zinc(II) acetate] | ~2450 | – | – | – | – | – | – | – | – | – | – | – | – | – | – | –
3 | CC(=O)OC[C@H]1O[C@@H]([S-])[C@H](OC(C)=O)[C@@H](OC(C)=O)[C@@H]1OC(C)=O.CCP(CC)CC.[Au+] [auranofin] | – | – | – | – | no inhibition was observed | no mutant colony was observable | 0.5 | ~10^5 cfu mL^−1 g^−1 | protect all the infected mice from death | failed to protect any of the mice from death | – | 5.2 | 6.1 | 0.25 | 0.375 | 4

Source: US12357657B2, “Silver-/gold-compounds and methods thereof” (priority 2019, dated 2025)
